Laboratory results reported in PubChem BioAssay AID1259407 (Chemical Carcinogenesis Research Information System (CCRIS), 2018).
Activity calls are given as the source filed them. The rule behind the calls is not given here.

Test system: CCRIS mutagenicity, Ames/micronucleus/aberration tests
Test: CCRIS mutagenicity studies
[1] = Test System: AMES SALMONELLA TYPHIMURIUM, Strain/Indicator: TA97, Metabolic Activation: NONE, Method: PREINCUBATION
[2] = Test System: AMES SALMONELLA TYPHIMURIUM, Strain/Indicator: TA98, Metabolic Activation: NONE, Method: PREINCUBATION
[3] = Test System: AMES SALMONELLA TYPHIMURIUM, Strain/Indicator: TA100, Metabolic Activation: HAMSTER, LIVER, S-9, AROCLOR 1254 (10%), Method: PREINCUBATION
[4] = Test System: AMES SALMONELLA TYPHIMURIUM, Strain/Indicator: TA100, Metabolic Activation: NONE, Method: PREINCUBATION
[5] = Test System: AMES SALMONELLA TYPHIMURIUM, Strain/Indicator: TA100, Metabolic Activation: RAT, LIVER, S-9, AROCLOR 1254 (10%), Method: PREINCUBATION
[6] = Test System: AMES SALMONELLA TYPHIMURIUM, Strain/Indicator: TA1535, Metabolic Activation: HAMSTER, LIVER, S-9, AROCLOR 1254 (10%), Method: PREINCUBATION
[7] = Test System: AMES SALMONELLA TYPHIMURIUM, Strain/Indicator: TA1535, Metabolic Activation: NONE, Method: PREINCUBATION
[8] = Test System: AMES SALMONELLA TYPHIMURIUM, Strain/Indicator: TA1535, Metabolic Activation: RAT, LIVER, S-9, AROCLOR 1254 (10%), Method: PREINCUBATION
[9] = Test System: AMES SALMONELLA TYPHIMURIUM, Strain/Indicator: TA1537, Metabolic Activation: NONE, Method: PREINCUBATION
[10] = Test System: AMES SALMONELLA TYPHIMURIUM, Strain/Indicator: TA1538, Metabolic Activation: NONE, Method: PREINCUBATION

Measured: mutagenic call

CCN(CC)c1ccc(N=O)c(O)c1
inactive: Test System: AMES SALMONELLA TYPHIMURIUM, Strain/Indicator: TA97, Metabolic Activation: HAMSTER, LIVER, S-9, AROCLOR 1254 (10%), Method: PREINCUBATION inactive; negative | Test System: AMES SALMONELLA TYPHIMURIUM, Strain/Indicator: TA97, Metabolic Activation: HAMSTER, LIVER, S-9, AROCLOR 1254 (30%), Method: PREINCUBATION inactive; negative | [1] inactive; negative | Test System: AMES SALMONELLA TYPHIMURIUM, Strain/Indicator: TA97, Metabolic Activation: RAT, LIVER, S-9, AROCLOR 1254 (10%), Method: PREINCUBATION inactive; negative | Test System: AMES SALMONELLA TYPHIMURIUM, Strain/Indicator: TA97, Metabolic Activation: RAT, LIVER, S-9, AROCLOR 1254 (30%), Method: PREINCUBATION inactive; negative | Test System: AMES SALMONELLA TYPHIMURIUM, Strain/Indicator: TA98, Metabolic Activation: HAMSTER, LIVER, S-9, AROCLOR 1254 (5 OR 10%), Method: PREINCUBATION inactive; negative | Test System: AMES SALMONELLA TYPHIMURIUM, Strain/Indicator: TA98, Metabolic Activation: HAMSTER, LIVER, S-9, AROCLOR 1254 (30%), Method: PREINCUBATION inactive; negative | [2] inactive; negative | Test System: AMES SALMONELLA TYPHIMURIUM, Strain/Indicator: TA98, Metabolic Activation: RAT, LIVER, S-9, AROCLOR 1254 (5 OR 10%), Method: PREINCUBATION inactive; negative | Test System: AMES SALMONELLA TYPHIMURIUM, Strain/Indicator: TA98, Metabolic Activation: RAT, LIVER, S-9, AROCLOR 1254 (30%), Method: PREINCUBATION inactive; negative | [3] inactive; negative | Test System: AMES SALMONELLA TYPHIMURIUM, Strain/Indicator: TA100, Metabolic Activation: HAMSTER, LIVER, S-9, AROCLOR 1254 (30%), Method: PREINCUBATION inactive; negative | [4] inactive; negative | [5] inactive; negative | Test System: AMES SALMONELLA TYPHIMURIUM, Strain/Indicator: TA100, Metabolic Activation: RAT, LIVER, S-9, AROCLOR 1254 (30%), Method: PREINCUBATION inactive; negative | [6] inactive; negative | Test System: AMES SALMONELLA TYPHIMURIUM, Strain/Indicator: TA1535, Metabolic Activation: HAMSTER, LIVER, S-9, AROCLOR 1254 (30%), Method: PREINCUBATION inactive; negative | [7] inactive; negative | [8] inactive; negative | Test System: AMES SALMONELLA TYPHIMURIUM, Strain/Indicator: TA1535, Metabolic Activation: RAT, LIVER, S-9, AROCLOR 1254 (30%), Method: PREINCUBATION inactive; negative | Test System: AMES SALMONELLA TYPHIMURIUM, Strain/Indicator: TA1537, Metabolic Activation: HAMSTER, LIVER, S-9, AROCLOR 1254 (30%), Method: PREINCUBATION inactive; negative | [9] inactive; negative | Test System: AMES SALMONELLA TYPHIMURIUM, Strain/Indicator: TA1537, Metabolic Activation: RAT, LIVER, S-9, AROCLOR 1254 (30%), Method: PREINCUBATION inactive; negative | Test System: AMES SALMONELLA TYPHIMURIUM, Strain/Indicator: TA1538, Metabolic Activation: HAMSTER, LIVER, S-9, AROCLOR 1254 (10%), Method: PREINCUBATION inactive; negative | Test System: AMES SALMONELLA TYPHIMURIUM, Strain/Indicator: TA1538, Metabolic Activation: HAMSTER, LIVER, S-9, AROCLOR 1254 (30%), Method: PREINCUBATION inactive; negative | [10] inactive; negative | Test System: AMES SALMONELLA TYPHIMURIUM, Strain/Indicator: TA1538, Metabolic Activation: RAT, LIVER, S-9, AROCLOR 1254 (10 OR 30%), Method: PREINCUBATION inactive; negative

O=c1[nH]c(=O)n([C@H]2C[C@H](O)[C@@H](CO)O2)cc1CCCCl
inactive: [1] inactive; negative | Test System: AMES SALMONELLA TYPHIMURIUM, Strain/Indicator: TA97, Metabolic Activation: RAT, LIVER, S-9, AROCLOR 1254, Method: PREINCUBATION inactive; negative | [2] inactive; negative | Test System: AMES SALMONELLA TYPHIMURIUM, Strain/Indicator: TA98, Metabolic Activation: RAT, LIVER, S-9, AROCLOR 1254, Method: PREINCUBATION inactive; negative | [4] inactive; negative | Test System: AMES SALMONELLA TYPHIMURIUM, Strain/Indicator: TA100, Metabolic Activation: RAT, LIVER, S-9, AROCLOR 1254, Method: PREINCUBATION inactive; negative | Test System: AMES SALMONELLA TYPHIMURIUM, Strain/Indicator: TA102, Metabolic Activation: NONE, Method: PREINCUBATION inactive; negative | Test System: AMES SALMONELLA TYPHIMURIUM, Strain/Indicator: TA102, Metabolic Activation: RAT, LIVER, S-9, AROCLOR 1254, Method: PREINCUBATION inactive; negative | Test System: AMES SALMONELLA TYPHIMURIUM, Strain/Indicator: TA104, Metabolic Activation: NONE, Method: PREINCUBATION inactive; negative | Test System: AMES SALMONELLA TYPHIMURIUM, Strain/Indicator: TA104, Metabolic Activation: RAT, LIVER, S-9, AROCLOR 1254, Method: PREINCUBATION inactive; negative | [7] inactive; negative | Test System: AMES SALMONELLA TYPHIMURIUM, Strain/Indicator: TA1535, Metabolic Activation: RAT, LIVER, S-9, AROCLOR 1254, Method: PREINCUBATION inactive; negative | [9] inactive; negative | Test System: AMES SALMONELLA TYPHIMURIUM, Strain/Indicator: TA1537, Metabolic Activation: RAT, LIVER, S-9, AROCLOR 1254, Method: PREINCUBATION inactive; negative | [10] inactive; negative | Test System: AMES SALMONELLA TYPHIMURIUM, Strain/Indicator: TA1538, Metabolic Activation: RAT, LIVER, S-9, AROCLOR 1254, Method: PREINCUBATION inactive; negative | Test System: CHINESE HAMSTER V-79, Strain/Indicator: V-79/8-AZAGUANINE, Metabolic Activation: NONE inactive; negative

C=C(C)C1CC=C(C)C(O)C1 (stereo unspecified)
inactive: Test System: AMES SALMONELLA TYPHIMURIUM, Strain/Indicator: TA98, Metabolic Activation: HAMSTER, LIVER, S-9, AROCLOR 1254 (10%), Method: PREINCUBATION inactive; negative | [2] inactive; negative | Test System: AMES SALMONELLA TYPHIMURIUM, Strain/Indicator: TA98, Metabolic Activation: RAT, LIVER, S-9, AROCLOR 1254 (10%), Method: PREINCUBATION inactive; negative | [3] inactive; negative | [4] inactive; negative | [5] inactive; negative | [6] inactive; negative | [7] inactive; negative | [8] inactive; negative | Test System: AMES SALMONELLA TYPHIMURIUM, Strain/Indicator: TA1537, Metabolic Activation: HAMSTER, LIVER, S-9, AROCLOR 1254 (10%), Method: PREINCUBATION inactive; negative | [9] inactive; negative | Test System: AMES SALMONELLA TYPHIMURIUM, Strain/Indicator: TA1537, Metabolic Activation: RAT, LIVER, S-9, AROCLOR 1254 (10%), Method: PREINCUBATION inactive; negative
